{"source": "patent US5063242A", "about": "(priority 1990, dated 1991)", "tested_on": "carrageenan footpad edema in rats", "settings": "rat, in vivo, po, 5 mg/kg"}
{"smiles": "COc1ccc2c(c1)c(CC(=O)O)c(C)n2C(=O)c1ccc(Cl)cc1", "note": "[Indomethacin]", "values": [{"measurement": "% I", "result": 48, "unit": "%"}, {"measurement": "Delta Edema (x ± SEM)", "result": "40 ± 2.5"}]}
